Patent US10093697B2, “IBAT inhibitors for the treatment of liver diseases” (Albireo AB, priority 2010, dated 2018)

Molecular target: IBAT (Mus musculus (Mouse), UniProt P70172)
Experiment: 75SeHCAT intestinal absorption in ApoE knock out mice (IBAT inhibitory effect)
Type: in vivo
Details: po, oral dose 0.156 μmol/kg, 75SeHCAT absorption over 24 hours
Procedure: Species Mouse; Strain ApoE knock out; Sub strain C57BL/6; Sex Female; Total No. of animals 70; Body weight range 20 g to 22 g; Supplier Möllegaard's Breeding (Skensved, Denmark); Identification method ID cards (bar code).
Acclimatisation At least one week at the Section of Laboratory; Animal Resource at AstraZeneca; Housing conditions Kept five by five in cages (Makrolon III, 7 dm2) in a room with regulated temperature (22° C.), relative humidity (40% to 60%) and a 12/12 hours light/dark cycle. Diet Free access to R3 pellets (Lactamin, Vadstena, Sweden) during the housing and experimental period. Water, free access to tap water during the housing and experimental period.
The animals were orally administered vehicle (n=3) or the compound of Example 14 (0.156 (n=3), 0.625 (n=3) or 2.5 μmol/kg (n=3)) at 13:00 o'clock on the experimental day. Thirty minutes later, a trace amount of ^75SeHCAT (^75Se-homo-tauro-cholic acid) ([…] per 0.1 mL per mouse) was orally given to each mouse. Twenty-four hours after ^75SeHCAT administration, the animals were killed by CO2 inhalation. At sacrifice, the gall bladder and the whole intestine were removed, and the faeces during the 24-hour period after ^75SeHCAT administration was collected for each mouse. The gamma radioactivities of ^75SeHCAT in the faeces and in the gall bladder-intestine were separately counted by 1282 CompuGamma CS Gamma counter (Wallac oy, Turku, Finland). The stability as well as the quantity of the ^75SeHCAT administered to each mouse, were controlled with an additional ^75SeHCAT aliquot following the same experimental process as other tested samples in the study.
The sum of the gamma counts from both the faeces and the gall bladder-intestine was considered as the total recovered ^75SeHCAT, which was averaged around 85% of the total ^75SeHCAT administered to each mouse. Of the recovered radioactivity of ^75SeHCAT, the percentage of the ^75SeHCAT detected in the faeces was considered as the faecal excretion while that in the gall bladder-intestine as body retention. Inhibitory effect of the compound of Example 14 on ^75SeHCAT intestinal absorption was calculated following the ^75SeHCAT body retention and the faecal excretion, and the ED50 of the compound was estimated following the dose-effect curve.
The mean IBAT inhibitory effect (%) at a dose (μmol/kg): 0.156 was determined for the compounds of examples 1-14 and is reported in Table 1.

IBAT, sequence (P70172 whole entry): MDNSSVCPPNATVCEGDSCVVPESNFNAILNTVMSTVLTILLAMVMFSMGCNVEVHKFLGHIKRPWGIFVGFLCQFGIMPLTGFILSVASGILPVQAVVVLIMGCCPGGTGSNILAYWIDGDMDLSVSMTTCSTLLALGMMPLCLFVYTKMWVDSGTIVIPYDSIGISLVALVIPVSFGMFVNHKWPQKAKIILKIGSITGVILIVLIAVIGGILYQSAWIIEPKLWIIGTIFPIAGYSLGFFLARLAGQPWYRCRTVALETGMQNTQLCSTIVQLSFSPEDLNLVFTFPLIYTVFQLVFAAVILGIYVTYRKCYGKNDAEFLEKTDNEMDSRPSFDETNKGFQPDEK

Row | Structure (SMILES) | inhibition at 0.156 µmol/kg [%]
1 | CCCCC1(CCCC)CN(c2ccccc2)c2cc(SC)c(OCC(=O)N[C@@H](C(=O)N[C@@H](CSC)C(=O)O)c3ccccc3)cc2S(=O)(=O)N1 [Example 4, 1,1-Dioxo-3,3-dibutyl-5-phenyl-7-methylthio-8-(N—{(R)-α-[N—((R)-1-carboxy-2-methylthioethyl)carbamoyl]benzyl}carbamoylmethoxy)-2,3,4,5-tetrahydro-1,2,5-benzothiadiazepine] | 63
2 | CCCCC1(CCCC)CN(c2ccccc2)c2cc(SC)c(OCC(=O)N[C@@H](C(=O)NCC(=O)O)c3ccccc3)cc2S(=O)(=O)C1 [Example 14, 1,1-Dioxo-3,3-dibutyl-5-phenyl-7-methylthio-8-(N—{(R)-1′-phenyl-1′-[N′-(carboxymethyl)carbamoyl]methyl}carbamoylmethoxy)-2,3,4,5-tetrahydro-1,5-benzothiazepine] | 28
3 | CCCCC1(CCCC)CN(c2ccccc2)c2cc(SC)c(OCC(=O)N[C@@H](C(=O)N[C@H](C(=O)O)[C@@H](C)O)c3ccc(O)cc3)cc2S(=O)(=O)N1 [Example 8, 1,1-Dioxo-3,3-dibutyl-5-phenyl-7-methylthio-8-(N—{(R)-α-[N—((S)-1-carboxy-2-(R)-hydroxypropyl)carbamoyl]-4-hydroxybenzyl}carbamoylmethoxy)-2,3,4,5-tetrahydro-1,2,5-benzothiadiazepine] | 46
4 | CCCCC1(CCCC)CN(c2ccccc2)c2cc(SC)c(OCC(=O)N[C@@H](C(=O)NCC(=O)O)c3ccccc3)cc2S(=O)(=O)N1 [Example 1, 1,1-Dioxo-3,3-dibutyl-5-phenyl-7-methylthio-8-(N—{(R)-α-[N-(carboxymethyl)carbamoyl]benzyl}carbamoylmethoxy)-2,3,4,5-tetrahydro-1,2,5-benzothiadiazepine] | 43
5 | CCCCC1(CCCC)CN(c2ccccc2)c2cc(SC)c(OCC(=O)N[C@@H](C(=O)N[C@H](C(=O)O)C(C)C)c3ccccc3)cc2S(=O)(=O)N1 [Example 7, 1,1-Dioxo-3,3-dibutyl-5-phenyl-7-methylthio-8-(N—{(R)-α-[N—((S)-1-carboxy-2-methylpropyl)carbamoyl]benzyl}carbamoylmethoxy)-2,3,4,5-tetrahydro-1,2,5-benzothiadiazepine] | 66
6 | CCCCC1(CCCC)CN(c2ccccc2)c2cc(SC)c(OCC(=O)N[C@@H](C(=O)N[C@@H](CC)C(=O)O)c3ccccc3)cc2S(=O)(=O)N1 [Example 3, 1,1-Dioxo-3,3-dibutyl-5-phenyl-7-methylthio-8-(N—{(R)-α-[N—((S)-1-carboxypropyl)carbamoyl]benzyl}carbamoylmethoxy)-2,3,4,5-tetrahydro-1,2,5-benzothiadiazepine] | 63
7 | CCCCC1(CCCC)CN(c2ccccc2)c2cc(SC)c(OCC(=O)N[C@@H](C(=O)N[C@H](C(=O)O)C(C)C)c3ccc(O)cc3)cc2S(=O)(=O)N1 [Example 13, 1,1-Dioxo-3,3-dibutyl-5-phenyl-7-methylthio-8-(N—{(R)-α-[N—((S)-1-carboxy-2-methylpropyl)carbamoyl]-4-hydroxybenzyl}carbamoylmethoxy)-2,3,4,5-tetra hydro-1,2,5-benzothiadiazepine] | 68
8 | CCCCC1(CCCC)CN(c2ccccc2)c2cc(SC)c(OCC(=O)N[C@@H](C(=O)N[C@@H](C)C(=O)O)c3ccccc3)cc2S(=O)(=O)N1 [Example 10, 1,1-Dioxo-3,3-dibutyl-5-phenyl-7-methylthio-8-(N—{(R)-α-[N—((S)-1-carboxyethyl)carbamoyl]benzyl}carbamoylmethoxy)-2,3,4,5-tetrahydro-1,2,5-benzothiadiazepine] | 68

Now from value to compound:

Row | inhibition at 0.156 µmol/kg [%] | Structure (SMILES)
9 | 63 | CCCCC1(CCCC)CN(c2ccccc2)c2cc(SC)c(OCC(=O)N[C@@H](C(=O)N[C@@H](C)C(=O)O)c3ccc(O)cc3)cc2S(=O)(=O)N1 [Example 12, 1,1-Dioxo-3,3-dibutyl-5-phenyl-7-methylthio-8-(N—{(R)-α-[N—((S)-1-carboxyethyl)carbamoyl]-4-hydroxybenzyl}carbamoylmethoxy)-2,3,4,5-tetrahydro-1,2,5-benzothiadiazepine]
10 | 59 | CCCCC1(CCCC)CN(c2ccccc2)c2cc(SC)c(OCC(=O)N[C@@H](C(=O)N[C@@H](CSC)C(=O)O)c3ccc(O)cc3)cc2S(=O)(=O)N1 [Example 6, 1,1-Dioxo-3,3-dibutyl-5-phenyl-7-methylthio-8-(N—{(R)-α-[N—((R)-1-carboxy-2-methylthio-ethyl)carbamoyl]-4-hydroxybenzyl}carbamoylmethoxy)-2,3,4,5-tetra hydro-1,2,5-benzothiadiazepine]
11 | 74 | CCCCC1(CCCC)CN(c2ccccc2)c2cc(SC)c(OCC(=O)N[C@@H](C(=O)N[C@@H](CC)C(=O)O)c3ccc(O)cc3)cc2S(=O)(=O)N1 [Example 5, 1,1-Dioxo-3,3-dibutyl-5-phenyl-7-methylthio-8-(N—{(R)-α-[N—((S)-1-carboxypropyl)carbamoyl]-4-hydroxybenzyl}carbamoylmethoxy)-2,3,4,5-tetrahydro-1,2,5-benzothiadiazepine]
12 | 67 | CCCCC1(CCCC)CN(c2ccccc2)c2cc(SC)c(OCC(=O)N[C@@H](C(=O)N[C@@H](CCC)C(=O)O)c3ccc(O)cc3)cc2S(=O)(=O)N1 [Example 9, 1,1-Dioxo-3,3-dibutyl-5-phenyl-7-methylthio-8-(N—{(R)-α-[N—((S)-1-carboxybutyl)carbamoyl]-4-hydroxybenzyl}carbamoylmethoxy)-2,3,4,5-tetrahydro-1,2,5-benzothiadiazepine]

System: Mdr2−/− mice
Experiment: In vivo animal model of primary sclerosing cholangitis (Mdr2-/- mice)
Details: daily oral gavage for 2-4 weeks, vs vehicle
From the text: A genetic mice with targeted disruption of the Multidrug resistant Mdr2 (Abcb4) gene encoding a canalicular phospholipid flippase (Mdr2−/−mice) spontaneously develop sclerosing cholangitis with macroscopic and microscopic features of human Primary sclerosing cholangitis. Bile duct injury in these mice is linked to defective biliary phospholipid secretion resulting in an increased concentration of free non-micellar bile acids which subsequently cause bile duct epithelial cell (cholangiocyte) injury, pericholangitis, periductal fibrosis with ductular proliferation and finally sclerosing cholangitis. […] In analogy to the Mdr2−/− mouse model of sclerosing cholangitis, Multidrug resistant protein MDR3/ABCB4 (the human orthologue of rodent Mdr2/Abcb4) defects play a role in the pathogenesis of various cholangiopathies in humans. MDR3 variants play a role as a modifier gene in the pathogenesis of various cholangiopathies such as PSC, Primary Biliary cirrhosis (PBC) and adulthood idiopathic ductopenia/biliary fibrosis.
Mdr2−/− mice were given daily oral doses of the compound of Example 14 by gavage for 2-4 weeks and controls were dosed the vehicle in the same way. Serum liver tests, liver histology and fibrosis were investigated. The compound of Example 14 improves liver tests, liver histology and fibrosis.

Row | Structure (SMILES) | fibrosis | liver histology | liver tests (serum)
13 | CCCCC1(CCCC)CN(c2ccccc2)c2cc(SC)c(OCC(=O)N[C@@H](C(=O)NCC(=O)O)c3ccccc3)cc2S(=O)(=O)C1 [Example 14, 1,1-Dioxo-3,3-dibutyl-5-phenyl-7-methylthio-8-(N—{(R)-1′-phenyl-1′-[N′-(carboxymethyl)carbamoyl]methyl}carbamoylmethoxy)-2,3,4,5-tetrahydro-1,5-benzothiazepine] | improves | improves | improves

Molecular target: Ileal Bile Acid Transporter Human (Homo sapiens (Human), UniProt Q12908)
Sequence (Q12908 whole entry): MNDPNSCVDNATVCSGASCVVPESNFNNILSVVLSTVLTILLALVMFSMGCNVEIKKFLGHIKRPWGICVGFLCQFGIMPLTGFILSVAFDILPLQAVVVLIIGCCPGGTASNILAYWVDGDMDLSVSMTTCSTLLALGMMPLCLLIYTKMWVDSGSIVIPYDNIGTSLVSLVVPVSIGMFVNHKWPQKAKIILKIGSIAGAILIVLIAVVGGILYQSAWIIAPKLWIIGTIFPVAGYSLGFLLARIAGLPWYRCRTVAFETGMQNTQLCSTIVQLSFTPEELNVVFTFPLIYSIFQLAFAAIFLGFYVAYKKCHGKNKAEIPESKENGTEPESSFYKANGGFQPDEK
Experiment: ISBT Hu HEK Uptake SPA: glycocholic acid uptake, radiometric SPA
Type: cell-based
Details: human IBAT in HEK cells
Procedure: ISBT Hu HEK Uptake SPA 13203 IBAT HUM Ileal Bile Acid Transporter Human HEK Glycocholic acid Uptake Radiometric—SPA Inhibitor IC50 Mean IC50 (nM) was determined for the compounds of examples 1-14

Row | IC50 [nM] | Structure (SMILES)
14 | 0.13 | CCCCC1(CCCC)CN(c2ccccc2)c2cc(SC)c(OCC(=O)N[C@@H](C(=O)N[C@H](C(=O)O)C(C)C)c3ccc(O)cc3)cc2S(=O)(=O)N1 [Example 13, 1,1-Dioxo-3,3-dibutyl-5-phenyl-7-methylthio-8-(N—{(R)-α-[N—((S)-1-carboxy-2-methylpropyl)carbamoyl]-4-hydroxybenzyl}carbamoylmethoxy)-2,3,4,5-tetra hydro-1,2,5-benzothiadiazepine]
